For one assay, the system named is E. faecium. The assay is described as follows: DiBAC4 membrane depolarization on E. faecium. In kind it is cell-based, Enterococcus faecium. The conditions noted are these: deoxycholate as positive control.
A further assay relates to A. baumannii. In words: DiBAC4 membrane depolarization on A. baumannii. It counts as cell-based, Acinetobacter baumannii. The settings on record: polymyxin as positive control.
A further assay deals with bacterial membrane. The settings on record: bacterium not stated; ref [6b],[13],[15]; cited from earlier work.

We go through three compounds from publication PMC7163397 (Journal of the American Chemical Society, 2017).

On to `C[C@H](CCC(=O)O)[C@H]1CC[C@H]2[C@@H]3CC[C@@H]4C[C@H](O)CC[C@]4(C)[C@H]3C[C@H](O)[C@]12C` [sodium deoxycholate], for which the “Membrane depolarization (DiBAC4 fluorescence change)” value with E. faecium is on record as “rapidly enhanced DiBAC4 fluorescence”.

Consider polymyxin, for which the “Membrane depolarization (DiBAC4 fluorescence change)” value in the assay with A. baumannii was “rapidly enhanced DiBAC4 fluorescence”.

tridecaptin: the “Membrane depolarization in DiBAC4 assay” value with bacterial membrane is “does not depolarize the membrane”.
